Assay results published in the CheMixHub viscosity set.

Assay: xn = mol fraction of the nth substance listed

CCOC(=O)CC(C)=O + CCCCCCO
viscosity [mPa·s], 100 kPa
Conditions | x1 = 0.1053 | x1 = 0.1983 | x1 = 0.2962 | x1 = 0.3947 | x1 = 0.4947 | x1 = 0.5989 | x1 = 0.6989 | x1 = 0.7954 | x1 = 0.892
293.15 K | 3.828 | 3.026 | 2.545 | 2.245 | 2.034 | 1.867 | 1.749 | 1.688 | 1.655
298.15 K | 3.286 | 2.644 | 2.285 | 2.022 | 1.809 | 1.651 | 1.571 | 1.555 | 1.538

O=CN1CCOCC1 + Cc1ccccc1C
viscosity [mPa·s]
Conditions | 298.15 K | 303.15 K | 313.15 K | 323.15 K
101 kPa, x2 = 0.1 | 5.936 | 5.18 | 4.063 | 3.294
101 kPa, x2 = 0.2 | 4.582 | 4.054 | 3.243 | 2.671
101 kPa, x2 = 0.3 | 3.602 | 3.231 | 2.627 | 2.194
101 kPa, x2 = 0.4 | 2.87 | 2.584 | 2.142 | 1.8
101 kPa, x2 = 0.5 | 2.233 | 2.034 | 1.71 | 1.467
101 kPa, x2 = 0.6 | 1.744 | 1.583 | 1.347 | 1.161
101 kPa, x2 = 0.7 | 1.385 | 1.271 | 1.08 | 0.9316
101 kPa, x2 = 0.8 | 1.122 | 1.034 | 0.8894 | 0.7789
101 kPa, x2 = 0.9 | 0.9104 | 0.8483 | 0.7328 | 0.6556
101.3 kPa, x2 = 0.05737 | 6.316 | – | – | –
101.3 kPa, x2 = 0.1297 | 4.989 | – | – | –
101.3 kPa, x2 = 0.2312 | 3.617 | – | – | –
101.3 kPa, x2 = 0.5161 | 1.652 | – | – | –
101.3 kPa, x2 = 0.5998 | 1.343 | – | – | –
101.3 kPa, x2 = 0.6877 | 1.088 | – | – | –
101.3 kPa, x2 = 0.7767 | 0.908 | – | – | –
101.3 kPa, x2 = 0.9523 | 0.635 | – | – | –
